Patent publication US8299085B2, “Quinazoline derivatives” (Novartis AG, priority 2004, dated 2012)

**Q.** For `COC(=O)Nc1cc2c(=O)n(NS(C)(=O)=O)c(=O)[nH]c2cc1C(F)(F)F` [Example 101, (3-Methanesulfonylamino-2,4-dioxo-7-trifluoromethyl-1,2,3,4-tetrahydro-quinazolin-6-yl)carbamic acid methyl ester], which melting point is on record?
**A.** Its melting point is 232.4 to 240.2 °C.

**Q.** Which melting point does the source give for `CS(=O)(=O)Nn1c(=O)[nH]c2cc(C(F)(F)F)c(-n3cnc(CO)c3)cc2c1=O` [Example 93, N-[6-(4-Hydroxymethyl-imidazol-1-yl)-2,4-dioxo-7-trifluoromethyl-1,4-dihydro-2H-quinazolin-3-yl]-methanesulfonamide] here?
**A.** The melting point was 225 to 230 °C.

**Q.** Which melting point does the source give for `CS(=O)(=O)Nn1c(=O)[nH]c2cc(C(F)(F)F)c(-n3ccnc3)cc2c1=O` [Example 73, N-(6-Imidazol-1-yl-2,4-dioxo-7-trifluoromethyl-1,4-dihydro-2H-quinazolin-3-yl)-methanesulfonamide] here?
**A.** The melting point was 285 to 301 °C (dec.).

**Q.** For `CCS(=O)(=O)Nn1c(=O)[nH]c2cc(C(F)(F)F)c(-n3cnnc3)cc2c1=O` [Example 70, Ethanesulfonic acid (2,4-dioxo-6-[1,2,4]triazol-4-yl-7-trifluoromethyl-1,4-dihydro-2H-quinazolin-3-yl)-amide], which melting point is on record?
**A.** Its melting point is 185 to 195 °C.

**Q.** Which melting point does the source give for `CN(C)c1cc2c(=O)n(NS(C)(=O)=O)c(=O)[nH]c2cc1C(F)(F)F` [Example 81, N-(6-Dimethylamino-2,4-dioxo-7-trifluoromethyl-1,4-dihydro-2H-quinazolin-3-yl)-methanesulfonamide] here?
**A.** Its melting point is 254 to 272 °C.

**Q.** Which melting point does the source give for `CS(=O)(=O)Nn1c(=O)[nH]c2cc(C(F)(F)F)c(N3CCSCC3)cc2c1=O` [Example 74, N-(2,4-Dioxo-6-thiomorpholin-4-yl-7-trifluoromethyl-1,4-dihydro-2H-quinazolin-3-yl)-methanesulfonamide] here?
**A.** Its melting point is 245 to 260 °C (dec.).

**Q.** For `CS(=O)(=O)Nn1c(=O)[nH]c2cc(C(F)(F)F)c(NCCO)cc2c1=O` [Example 82, N-[6-(2-Hydroxy-ethylamino)-2,4-dioxo-7-trifluoromethyl-1,4-dihydro-2H-quinazolin-3-yl]-methanesulfonamide], which melting point is on record?
**A.** The melting point was 240 to 246 °C.

**Q.** For `CS(=O)(=O)Nn1c(=O)[nH]c2cc([N+](=O)[O-])c(NCC(O)c3cccs3)cc2c1=O` (centres unmarked) [Example 6, N-[6-(2-Hydroxy-2-thiophen-2-yl-ethylamino)-7-nitro-2,4-dioxo-1,4-dihydro-2H-quinazolin-3-yl]-methanesulfonamide], which melting point is on record?
**A.** The melting point was 110 °C (dec.).

**Q.** For `CN(C)C(=O)c1cn(-c2cc3c(=O)n(NS(C)(=O)=O)c(=O)[nH]c3cc2C(F)(F)F)cn1` [Example 90, 1-(3-Methanesulfonylamino-2,4-dioxo-7-trifluoromethyl-1,2,3,4-tetrahydro-quinazolin-6-yl)-1H-imidazole-4-carboxylic acid dimethylamide], which melting point is on record?
**A.** The melting point was 284 to 286 °C.

**Q.** With `COc1cc2c(=O)n(NS(C)(=O)=O)c(=O)[nH]c2cc1[N+](=O)[O-]` [Example 15, N-(6-Methoxy-7-nitro-2,4-dioxo-1,4-dihydro-2H-quinazolin-3-yl)-methanesulfonamide] as the compound, how does the melting point read?
**A.** Its melting point is over 280 °C.

**Q.** For `CS(=O)(=O)Nn1c(=O)[nH]c2cc(C(F)(F)F)c(Oc3cccnc3)cc2c1=O` [Example 80, N-[2,4-Dioxo-6-(pyridin-3-yloxy)-7-trifluoromethyl-1,4-dihydro-2H-quinazolin-3-yl]-methanesulfonamide], which melting point is on record?
**A.** The melting point was 194 to 196 °C.

**Q.** For `CNC(=O)c1cn(-c2cc3c(=O)n(NS(C)(=O)=O)c(=O)[nH]c3cc2C(F)(F)F)cn1` [Example 91, 1-(3-Methanesulfonylamino-2,4-dioxo-7-trifluoromethyl-1,2,3,4-tetrahydro-quinazolin-6-yl)-1H-imidazole-4-carboxylic acid methylamide], which melting point is on record?
**A.** The melting point was 292 to 295 °C.

**Q.** For `COc1ccc(-c2cn(-c3cc4c(=O)n(NS(C)(=O)=O)c(=O)[nH]c4cc3C(F)(F)F)cn2)cc1` [Example 84, N-{6-[4-(4-Methoxy-phenyl)-imidazol-1-yl]-2,4-dioxo-7-trifluoromethyl-1,4-dihydro-2H-quinazolin-3-yl}-methanesulfonamide], which melting point is on record?
**A.** The melting point was 293 to 294 °C.

**Q.** For `CS(=O)(=O)Nn1c(=O)[nH]c2cc(C(F)(F)F)c(-n3cnc(Br)c3)cc2c1=O` [Example 95, N-[6-(4-Bromo-imidazol-1-yl)-2,4-dioxo-7-trifluoromethyl-1,4-dihydro-2H-quinazolin-3-yl]-methanesulfonamide], which melting point is on record?
**A.** Its melting point is 229 to 233 °C.

**Q.** Which melting point does the source give for `CS(=O)(=O)Nn1c(=O)[nH]c2cc(C(F)(F)F)c(N3CCC(F)(F)CC3)cc2c1=O` [Example 76, N-[6-(4,4-Difluoro-piperidin-1-yl)-2,4-dioxo-7-trifluoromethyl-1,4-dihydro-2H-quinazolin-3-yl]-methanesulfonamide] here?
**A.** Its melting point is 249 to 261 °C (dec.).

**Q.** For `CS(=O)(=O)Nn1c(=O)[nH]c2cc(C(F)(F)F)c(N3CCC3)cc2c1=O` [Example 79, N-(6-Azetidin-1-yl-2,4-dioxo-7-trifluoromethyl-1,4-dihydro-2H-quinazolin-3-yl)-methanesulfonamide], which melting point is on record?
**A.** Its melting point is 266 to 283 °C.

**Q.** Which melting point does the source give for `CS(=O)(=O)Nn1c(=O)[nH]c2cc(C(F)(F)F)c(-n3cnc(C(F)(F)F)c3)cc2c1=O` [Example 96, N-[6-(4-Trifluoromethyl-imidazol-1-yl)-2,4-dioxo-7-trifluoromethyl-1,4-dihydro-2H-quinazolin-3-yl]-methanesulfonamide] here?
**A.** The melting point was 144 to 147 °C.

**Q.** For `CNC(=O)c1ncn(-c2cc3c(=O)n(NS(C)(=O)=O)c(=O)[nH]c3cc2C(F)(F)F)n1` [Example 72, 1-(3-Methanesulfonylamino-2,4-dioxo-7-trifluoromethyl-1,2,3,4-tetrahydro-quinazolin-6-yl)-1H-[1,2,4]triazole-3-carboxylic acid methylamide], which melting point is on record?
**A.** Its melting point is 257 to 260 °C.

**Q.** Which melting point does the source give for `CS(=O)(=O)Nn1c(=O)[nH]c2cc(C(F)(F)F)c(N3CCC4(CC3)OCCO4)cc2c1=O` [Example 77, N-[6-(1,4-Dioxa-8-aza-spiro[4.5]dec-8-yl)-2,4-dioxo-7-trifluoromethyl-1,4-dihydro-2H-quinazolin-3-yl]-methanesulfonamide] here?
**A.** Its melting point is 253 to 262 °C.

**Q.** With `CCOC(=O)c1ncn(-c2cc3c(=O)n(NS(C)(=O)=O)c(=O)[nH]c3cc2C(F)(F)F)n1` [Example 71, 1-(3-Methanesulfonylamino-2,4-dioxo-7-trifluoromethyl-1,2,3,4-tetrahydro-quinazolin-6-yl)-1H-[1,2,4]triazole-3-carboxylic acid ethyl ester] as the compound, how does the melting point read?
**A.** The melting point was 267 to 270 °C.

**Q.** With `CS(=O)(=O)Nn1c(=O)[nH]c2cc(C(F)(F)F)c(N3CCC(=O)CC3)cc2c1=O` [Example 78, N-[2,4-Dioxo-6-(4-oxo-piperidin-1-yl)-7-trifluoromethyl-1,4-dihydro-2H-quinazolin-3-yl]-methanesulfonamide] as the compound, how does the melting point read?
**A.** The melting point was 238 to 242 °C.

**Q.** With `COCc1ccc(-c2cn(-c3cc4c(=O)n(NS(C)(=O)=O)c(=O)[nH]c4cc3C(F)(F)F)cn2)cc1` [Example 85, N-{6-[4-(4-Methoxymethyl-phenyl)-imidazol-1-yl]-2,4-dioxo-7-trifluoromethyl-1,4-dihydro-2H-quinazolin-3-yl}-methanesulfonamide] as the compound, how does the melting point read?
**A.** The melting point was 252 to 257 °C.

**Q.** For `COC(=O)c1cn(-c2cc3c(=O)n(NS(C)(=O)=O)c(=O)[nH]c3cc2C(F)(F)F)cn1` [Example 88, 1-(3-methanesulfonylamino-2,4-dioxo-7-trifluoromethyl-1,2,3,4-tetrahydro-quinazolin-6-yl)-1H-imidazole-4-carboxylic acid methyl ester], which melting point is on record?
**A.** The melting point was 287 to 288 °C.
